Reference: patent publication US20240317683A1, “METHODS OF TREATING MOOD DISORDERS” (priority 2020, published 2024)
Counter-ions that a name gives are not always drawn.

What was measured:
[1] = target: serotonin transporter (SERT) (Homo sapiens (Human), UniProt P31645); assay: SERT fluorescent substrate uptake inhibition in transfected HEK293 cells; format: cell-based; conditions: HEK293 cells expressing SERT
Description: SERT Uptake Inhibition. The ability of test compounds to block monoamine uptake by SERT was determined using the Neurotransmitter Transporter Uptake Assay Kit manufactured by Molecular Devices (Cat #R8173). Briefly, stably transfected HEK293 cells expressing SERT were grown and plated into 384-well plates at a concentration of 20,000 cells per well. Plates were then incubated for 16-20 h at 37° C. and 5% CO2. The medium was then aspirated and replaced with 25 μL of assay buffer (20 mM HEPES in HBSS, containing 0.1% BSA) containing the test compounds at the appropriate concentrations. Plates were then centrifuged at 300 rpm for 15 s and then incubated at 37° C. for 30 minutes. At this time, 25 μL of the proprietary fluorescent dye solution was added, the plates were incubated at 37°° C. for 60 minutes, and then fluorescence was quantified on a plate reader (excitation wavelength =440 nm, emission wavelength=520 nm). The proprietary dye solution contains a mixture of 1) a fluorescent dye (dye 1) that mimics the endogenous substrate of SERT and is thereby actively transported to the intracellular compartment in the absence of an inhibitor and 2) a masking dye that inhibits the fluorescence of dye 1 in the extracellular compartment. Therefore, the overall fluorescence of the system increases as the fluorescent dye is transported into the cells.

[2] = Metabolic stability in rat liver microsomes (RLM); format: in vitro ADME; conditions: both sexes, pooled rat liver microsomes, pH 7.4, NADPH
Description: (§1) RLM Stability. Pooled RLM from adult male and female donors (Xenotech R1000) were used. Microsomal incubations were carried out in multi-well plates. […] Control incubations were performed by replacing the NADPH-cofactor system with PBS. Test compounds (1 μM, final solvent concentration 1.0%) were incubated with microsomes at 37° C. with constant shaking. Six time points over 60 minutes were analyzed, with 60 μL aliquots of the reaction mixture being drawn at each time point.

[3] = Pharmacokinetics in mice, brain; format: in vivo, C57BL/6 mice; conditions: for half-life / Cmax / Tmax / AUC0-last: mouse brain; for F: mouse, based on brain AUC0-last
Description: (§2) Animals. Male C57BL/6 mice, aged 8-12 weeks, were used in these studies. Four mice were housed in each cage. Temperature and humidity were maintained at 22±3° C. and 30-70%, respectively, and illumination was controlled to give a 12 h light and 12 h dark cycle. Temperature and humidity were recorded by an auto-controlled data logger system. All animals were provided laboratory rodent diet. Reverse osmosis water treated with ultraviolet light was provided ad libitum. Animals were randomly assigned to treatment groups.
(§3) Drugs. Compounds 4 and 5 were prepared as described above. All other compounds were commercially obtained. Test compounds were used as the hydrogen fumarate (1 and 2) or hydrochloride (3, 4, and 5) salts and were dissolved in a vehicle consisting of normal saline. They were then administered intravenously (IV) via the tail vein, subcutaneously (SC), or orally (PO) via gavage at a dose of 1 or 10 mg/kg (calculated based on the free base) and at a volume of 5 ml/kg body weight.
(§4) Sample Collection and Bioanalysis. Blood samples (approximately 60 μL) were collected under light isoflurane anesthesia (Surgivet®) from the retro orbital plexus at 0.08, 0.25, 0.5, 1, 2, 4, 8, and 24 h (4 animals per time point). Immediately after blood collection, plasma was harvested by centrifugation at 4,000 rpm for 10 min at 4° C. and samples were stored at −70±10° C. until bioanalysis. Following blood collection, animals were immediately sacrificed, the abdominal vena-cava was cut open, and the whole body was perfused from the heart using 10 mL of normal saline, and brain samples were collected from all animals. After isolation, brain samples were rinsed three times in ice-cold normal saline (for 5-10 seconds/rinse using ˜5-10 mL normal saline in disposable petri dish for each rinse) and dried on blotting paper. Brain samples were homogenized using ice-cold phosphate-buffered saline (pH 7.4). Total homogenate volume was three times the tissue weight. All homogenates were stored at −70±10° C. until bioanalysis. For bioanalysis, 25 μL aliquots of plasma/brain study samples or spiked plasma/brain calibration standards were added to individual pre-labeled micro-centrifuge tubes followed by 100 μL of an internal standard solution (glipizide, 500 ng/ml in acetonitrile) except for blanks, where 100 μL of acetonitrile was added. Samples were vortexed for 5 minutes and then centrifuged for 10 minutes at 4,000 rpm at 4° C. Following centrifugation, 100 μL of each clear supernatant was transferred to a 96 well plate and analyzed with a fit-for-purpose LC-MS/MS method, with authentic samples of each analyte used for calibration and identification.
(§5) Data Analysis. Pharmacokinetic parameters were estimated using the non-compartmental analysis tool of Phoenix® WinNonlin software (Ver 8.0).

[4] = Metabolic stability in human liver microsomes (HLM); format: in vitro ADME; conditions: both sexes, pooled human liver microsomes, pH 7.4, NADPH
Description: as §1, with “HLM” for “RLM”, “(Corning 452117)” for “(Xenotech R1000)”

[5] = target: 5-HT2A (Homo sapiens (Human), UniProt P28223); assay: FLIPR Ca2+ flux agonist assay, 5-HT2A; format: cell-based; conditions: for EC50 / 5-HT2A % Act @ Max Dose: HEK293
Description: A solution of 250 mM probenecid in 1 mL FLIPR assay buffer was prepared fresh. This was combined with a fluorescent dye (Fluo-4 Direct™) to make a final assay concentration of 2.5 mM. […] The fluorescent dye was then added to the assay plate along with assay buffer to a final volume of 40 μL. The cell plate was incubated for 50 min at 37° C. and 5% CO2 and placed into the FLIPR Tetra along with the compound plate. 10 μL of references and compounds were then transferred from the compound plate into the cell plate and the fluorescent signal was read.

[6] = Pharmacokinetics in mice, plasma; format: in vivo, C57BL/6 mice; conditions: for AUC(0-t) / clearance / half-life / Cmax / Tmax: male, C57BL/6, mouse plasma; for F: mouse, based on plasma AUC0-last
Description: as §2, §3, §4, §5

[7] = male, C57BL/6, IV, 10 mg/kg, read-out: Cmax (C0 back-extrapolated to t = 0)
[8] = male, C57BL/6, oral, 10 mg/kg, read-out: Cmax
[9] = IV, 10 mg/kg, read-out: Cmax (C0 back-extrapolated to t = 0)

CCCN(CC)CCc1c[nH]c2ccccc12 [Compound 1, ethylpropyltryptamine]
IC50 [1]: 750 nM
SERT % Inhibition @ Max Dose [1]: 75.35%
half-life at 1 μM [2]: 1.4 min
microsomal CLint at 1 μM [2]: 970 µL/min/mg
half-life ([3]; male, C57BL/6, IV, 10 mg/kg): 104 min
Cmax [3, 7]: 15400 ng/g
Tmax ([3]; male, C57BL/6, oral, 10 mg/kg): 15 min
half-life ([3]; male, C57BL/6, oral, 10 mg/kg): 39.6 min
Cmax [3, 8]: 101 ng/g
AUC0-last ([3]; IV, 10 mg/kg): 4,754.52 h*ng/g
AUC0-last ([3]; oral, 10 mg/kg): 68.93 ng·h/g
F ([3]; oral, 10 mg/kg): 1.4%
half-life at 1 μM [4]: 21.7 min
microsomal CLint at 1 μM [4]: 64.3 µL/min/mg
EC50 [5]: 30.5 nM
AUC(0-t) ([6]; IV, 10 mg/kg): 844 ng·h/mL
clearance ([6]; IV, 10 mg/kg): 197 mL/min/kg
half-life ([6]; IV, 10 mg/kg): 114 min
Cmax [6, 9]: 3820 ng/mL
AUC(0-t) ([6]; oral, 10 mg/kg): 22.1 ng·h/mL
Tmax ([6]; oral, 10 mg/kg): 4.8 min
half-life ([6]; oral, 10 mg/kg): 113 min
Cmax ([6]; oral, 10 mg/kg, read-out: Cmax): 20.3 ng/mL
F ([6]; oral, 10 mg/kg): 2.6%

CCN(C)CCc1c[nH]c2ccccc12 [Compound 2, methylethyltryptamine]
IC50 [1]: 9130 nM
SERT % Inhibition @ Max Dose [1]: 62.06%
half-life at 1 μM [2]: 0.9 min
microsomal CLint at 1 μM [2]: 1560 µL/min/mg
half-life ([3]; male, C57BL/6, IV, 10 mg/kg): 92.4 min
Cmax [3, 7]: 6250 ng/g
Tmax ([3]; male, C57BL/6, oral, 10 mg/kg): 30 min
half-life ([3]; male, C57BL/6, oral, 10 mg/kg): 451 min
Cmax [3, 8]: 957 ng/g
AUC0-last ([3]; IV, 10 mg/kg): 3,923.27 h*ng/g
AUC0-last ([3]; oral, 10 mg/kg): 1,988.41 h*ng/g
F ([3]; oral, 10 mg/kg): 51%
half-life at 1 μM [4]: 126 min
microsomal CLint at 1 μM [4]: 11.2 µL/min/mg
Emax [5]: 36.2%
selectivity for 5-HT2A over 5-HT2B (in words) [5]: highly selective
5-HT2A % Act @ Max Dose [5]: 36.2%
AUC(0-t) ([6]; IV, 10 mg/kg): 545 ng·h/mL
clearance ([6]; IV, 10 mg/kg): 304 mL/min/kg
half-life ([6]; IV, 10 mg/kg): 88.8 min
Cmax [6, 9]: 963 ng/mL
AUC(0-t) ([6]; oral, 10 mg/kg): 238 ng·h/mL
Tmax ([6]; oral, 10 mg/kg): 15 min
half-life ([6]; oral, 10 mg/kg): 82.2 min
Cmax ([6]; oral, 10 mg/kg, read-out: Cmax): 102 ng/mL
F ([6]; oral, 10 mg/kg): 44%

CCCN(CC)CCc1c[nH]c2ccc(F)cc12 [Compound 3, N-ethyl-N-(2-(5-fluoro-1H-indol-3-yl)ethyl) propan-1-amine hydrochloride]
half-life at 1 μM [2]: 3.2 min
microsomal CLint at 1 μM [2]: 428 µL/min/mg
half-life at 1 μM [4]: 13 min
microsomal CLint at 1 μM [4]: 106 µL/min/mg
selectivity for 5-HT2A over 5-HT2B (in words) [5]: little selectivity
5-HT2A % Act @ Max Dose [5]: 104.1%
EC50 [5]: 5.54 nM

CN(C)CCc1c[nH]c2ccc(F)cc12 [Compound 5, 2-(5-fluoro-1H-indol-3-yl)-N,N-dimethylethan-1-amine hydrochloride]
half-life at 1 μM [2]: 9.2 min
microsomal CLint at 1 μM [2]: 151 µL/min/mg
Tmax ([3]; male, C57BL/6, SC, 1 mg/kg): 4.8 min
Cmax ([3]; male, C57BL/6, SC, 1 mg/kg, read-out: Cmax): 22 ng/g
Tmax ([3]; male, C57BL/6, SC, 10 mg/kg): 15 min
Cmax ([3]; male, C57BL/6, SC, 10 mg/kg, read-out: Cmax): 778 ng/g
AUC0-last ([3]; SC, 10 mg/kg): 376.09 ng·h/g
half-life at 1 μM [4]: 4.6 min
microsomal CLint at 1 μM [4]: 300 µL/min/mg
AUC(0-t) ([6]; SC, 1 mg/kg): 11 ng·h/mL
Tmax ([6]; SC, 1 mg/kg): 4.8 min
Cmax ([6]; SC, 1 mg/kg, read-out: Cmax): 41.6 ng/mL
AUC(0-t) ([6]; SC, 10 mg/kg): 247 ng·h/mL
Tmax ([6]; SC, 10 mg/kg): 15 min
half-life ([6]; SC, 10 mg/kg): 16.2 min
Cmax ([6]; SC, 10 mg/kg, read-out: Cmax): 363 ng/mL

CN(C)CCc1c[nH]c2ccccc12 [DMT, N,N-dimethyltryptamine, reference compound]
IC50 [1]: 2960 nM
SERT % Inhibition @ Max Dose [1]: 67.92%
half-life at 1 μM [2]: 10.1 min
microsomal CLint at 1 μM [2]: 137 µL/min/mg
half-life at 1 μM [4]: 7 min
5-HT2A % Act @ Max Dose [5]: 93.4%

CN(C)CCc1c[nH]c2cccc(O)c12 [Psilocin, psilocin, reference compound]
IC50 [1]: 2040 nM
SERT % Inhibition @ Max Dose [1]: 88.15%
half-life at 1 μM [2]: 75.6 min
microsomal CLint at 1 μM [2]: 18.3 µL/min/mg
clearance ([3]; male, C57BL/6, mouse brain table, IV, 1 mg/kg): 24.1 mL/min/kg
half-life ([3]; male, C57BL/6, IV, 1 mg/kg): 182 min
Cmax ([3]; male, C57BL/6, IV, 1 mg/kg, read-out: Cmax (C0 back-extrapolated to t = 0)): 1200 ng/g
Tmax ([3]; male, C57BL/6, oral, 1 mg/kg): 10.2 min
half-life ([3]; male, C57BL/6, oral, 1 mg/kg): 175 min
Cmax ([3]; male, C57BL/6, oral, 1 mg/kg, read-out: Cmax): 211 ng/g
AUC0-last ([3]; IV, 1 mg/kg): 702 ng·h/g
AUC0-last ([3]; oral, 1 mg/kg): 399 ng·h/g
F ([3]; oral, 1 mg/kg): 57%
half-life at 1 μM [4]: 110 min
AUC(0-t) ([6]; IV, 1 mg/kg): 79.9 ng·h/mL
clearance ([6]; IV, 1 mg/kg): 204 mL/min/kg
half-life ([6]; IV, 1 mg/kg): 66 min
Cmax ([6]; IV, 1 mg/kg, read-out: Cmax (C0 back-extrapolated to t = 0)): 195 ng/mL
AUC(0-t) ([6]; oral, 1 mg/kg): 51.1 ng·h/mL
Tmax ([6]; oral, 1 mg/kg): 10.2 min
half-life ([6]; oral, 1 mg/kg): 118 min
Cmax ([6]; oral, 1 mg/kg, read-out: Cmax): 85.9 ng/mL
F ([6]; oral, 1 mg/kg): 64%
